Measured values reported in article PMC4519791, “Functional diversity and properties of multiple xylanases from Penicillium oxalicum GZ-2” (Scientific Reports, 2015).

Key:
Format in all cases: biochemical
xyn10A = target: T1, xyn10A (Penicillium oxalicum, UniProt U3N115); assay: TLC of hydrolysis products; conditions: 1 mg/ml substrate, 12 h; 50 mM acetate pH 4.0, 40 °C (Figure 7 legend) or optimal pH, 45 °C (Methods)
T1 construct: mature enzyme, GH10 catalytic domain without CBM; pPICZalphaA alpha-factor secretion, 6xHis tag, Pichia pastoris, Ni-NTA
T1 sequence (U3N115 20-330): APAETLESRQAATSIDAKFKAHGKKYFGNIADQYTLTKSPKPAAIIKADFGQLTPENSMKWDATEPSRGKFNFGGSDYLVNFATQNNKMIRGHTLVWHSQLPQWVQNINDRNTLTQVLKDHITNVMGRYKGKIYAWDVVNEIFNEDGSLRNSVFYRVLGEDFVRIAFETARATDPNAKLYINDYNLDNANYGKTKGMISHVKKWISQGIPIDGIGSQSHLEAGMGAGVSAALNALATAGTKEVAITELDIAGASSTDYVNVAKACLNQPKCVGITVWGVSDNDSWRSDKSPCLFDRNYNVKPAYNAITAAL

xyn11B = target: T2, xyn11B (Penicillium oxalicum, UniProt E7EF85); assay: TLC of hydrolysis products; conditions: 1 mg/ml substrate, 12 h; 50 mM acetate pH 4.0, 40 °C (Figure 7 legend) or optimal pH, 45 °C (Methods)
T2 construct: gene xynB; mature enzyme, GH11 catalytic domain, Ser/Thr linker and CBM1; pPICZalphaA alpha-factor secretion, 6xHis tag, Pichia pastoris, Ni-NTA
T2 sequence (E7EF85 20-310): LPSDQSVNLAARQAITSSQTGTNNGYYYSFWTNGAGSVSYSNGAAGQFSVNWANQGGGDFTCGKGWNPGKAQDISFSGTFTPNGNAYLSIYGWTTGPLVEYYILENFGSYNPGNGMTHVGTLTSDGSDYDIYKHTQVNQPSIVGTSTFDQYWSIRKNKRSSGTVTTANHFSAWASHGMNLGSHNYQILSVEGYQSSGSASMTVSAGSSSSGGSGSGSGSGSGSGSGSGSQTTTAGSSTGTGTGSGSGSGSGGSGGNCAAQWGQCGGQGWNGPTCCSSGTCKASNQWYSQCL

xyn11A = target: T3, xyn11A (Penicillium oxalicum, UniProt U3MZH8); assay: TLC of hydrolysis products; conditions: 1 mg/ml substrate, 12 h; 50 mM acetate pH 4.0, 40 °C (Figure 7 legend) or optimal pH, 45 °C (Methods)
T3 construct: GH11 catalytic domain without CBM; 23 kDa by SDS-PAGE; pPICZalphaA alpha-factor secretion, 6xHis tag, Pichia pastoris, Ni-NTA
T3 sequence (U3MZH8 17-211): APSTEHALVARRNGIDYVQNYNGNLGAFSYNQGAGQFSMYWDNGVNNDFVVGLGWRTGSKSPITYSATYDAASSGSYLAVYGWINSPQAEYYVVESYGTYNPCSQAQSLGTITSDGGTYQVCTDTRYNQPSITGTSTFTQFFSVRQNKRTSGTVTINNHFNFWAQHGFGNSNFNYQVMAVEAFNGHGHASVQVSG

xyn10B = target: T4, xyn10B (Penicillium oxalicum, UniProt U3MZ77); assay: p-nitrophenyl substrate hydrolysis (specific activity); conditions: 10 mM substrate; optimal temperature, pH 5.0
T4 construct: mature enzyme, GH10 catalytic domain, Ser/Thr linker and CBM1; pPICZalphaA alpha-factor secretion, 6xHis tag, Pichia pastoris, Ni-NTA
T4 sequence (U3MZ77 23-410): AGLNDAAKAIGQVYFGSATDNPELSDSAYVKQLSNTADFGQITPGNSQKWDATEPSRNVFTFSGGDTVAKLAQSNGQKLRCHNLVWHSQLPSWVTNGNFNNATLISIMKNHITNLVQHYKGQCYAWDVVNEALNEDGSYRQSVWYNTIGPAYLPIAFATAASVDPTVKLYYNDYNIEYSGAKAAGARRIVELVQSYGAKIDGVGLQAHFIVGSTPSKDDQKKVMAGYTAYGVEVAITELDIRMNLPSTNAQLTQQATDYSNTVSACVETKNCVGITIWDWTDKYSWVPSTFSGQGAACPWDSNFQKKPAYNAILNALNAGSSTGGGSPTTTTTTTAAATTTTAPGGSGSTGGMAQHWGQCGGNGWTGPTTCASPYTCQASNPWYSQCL

Row | SMILES | TLC of hydrolysis products (xyn10A) | TLC of hydrolysis products (xyn11B) | TLC of hydrolysis products (xyn11A) | p-nitrophenyl substrate hydrolysis (specific activity) (xyn10B)
1 | OC1OC[C@@H](O[C@@H]2OC[C@@H](O[C@@H]3OC[C@@H](O)[C@H](O)[C@H]3O)[C@H](O)[C@H]2O)[C@H](O)[C@H]1O (some centres unmarked) [X3, xylotriose] | the two GH10 enzymes rapidly degraded X3, X4, X5 and X6 | – | – | –
2 | OC1OC[C@@H](O[C@@H]2OC[C@@H](O[C@@H]3OC[C@@H](O[C@@H]4OC[C@@H](O)[C@H](O)[C@H]4O)[C@H](O)[C@H]3O)[C@H](O)[C@H]2O)[C@H](O)[C@H]1O (some centres unmarked) [X4, xylotetraose] | – | hydrolytic products obtained with GH11 xylanase (xyn11B) was similar to that of xyn11A | X4, X5 and X6 were hydrolyzed to X2 and X3 through xyn11A | –
3 | OC1CO[C@@H](OC2CO[C@@H](OC3CO[C@@H](OC4CO[C@@H](OC5CO[C@@H](OC6COC(O)C(O)C6O)C(O)C5O)C(O)C4O)C(O)C3O)C(O)C2O)C(O)C1O (some centres unmarked) [X6, xylohexaose] | the two GH10 enzymes rapidly degraded X3, X4, X5 and X6 | hydrolytic products obtained with GH11 xylanase (xyn11B) was similar to that of xyn11A | X4, X5 and X6 were hydrolyzed to X2 and X3 through xyn11A | –
4 | O=[N+]([O-])c1ccc(O[C@@H]2O[C@H](CO)[C@@H](O[C@@H]3O[C@H](CO)[C@@H](O)[C@H](O)[C@H]3O)[C@H](O)[C@H]2O)cc1 [pNPC, p-nitrophenyl β-D-cellobioside] | – | – | – | Although xyn10B degraded pNPX and pNPC, the other three enzymes were not active
5 | O=[N+]([O-])c1ccc(O[C@@H]2OC[C@@H](O)[C@H](O)[C@H]2O)cc1 [pNPX, p-nitrophenyl-β-D-xylopyranoside] | – | – | – | Although xyn10B degraded pNPX and pNPC, the other three enzymes were not active
